Where two headings read alike, the source gives them in different places.
Target: T1, human B-Raf (Homo sapiens, UniProt P15056)
T1 construct: Flag; GST; made in house; host or cells: Sf9 insect cells (B-Raf); E. coli (MEK1-GST)
Experiment: B-Raf Kinase to MEK1 ELISA
Type: biochemical
Details: for IC50: median, cpd concentrations from 10 μM to 30 nM in half log dilutions, read-out: Median IC50; for inhibition at 10 µM: read-out: % Inhib./10 uM
Description: TITLE: B-Raf Kinase to MEK1 ELISA
PURPOSE: To discover B-Raf Kinase inhibitors that can inhibit growth of tumor cells which contain oncogenic forms of Receptor Tyrosine Kinases or K-Ras, or B-Raf kinase.
Reagents: Flag/GST-tagged recombinant human B-Raf produced in Sf9 insect cells, human non-active Mek-1-GST (recombinant protein produced in E. coli); and a phospho-MEK1 specific poly-clonal Ab from Cell Signaling Technology (cat. #9121).
B-Raf1 Kinase Assay Procedure:
B-Raf-1 is used to phosphorylate GST-MEK1. MEK1 phosphorylation is measured by a phospho-specific antibody (from Cell Signaling Technology, cat. #9121) that detects phosphorylation of two serine residues at positions 217 and 221 on MEK1.
B-Raf Assay Stock Solutions:
1. Assay Dilution Buffer (ADB): 20 mM MOPS, pH 7.2, 25 mM β-glycerol phosphate, 5 mM EGTA, 1 mM sodium orthovanadate, 1 mM dithiothreitol.
2. Magnesium/ATP Cocktail: 200 μM cold ATP and 40 mM magnesium chloride in ADB.
3. Active Kinase: Active B-Raf: used at ˜20 ng per assay point.
4. Non-active GST-MEK1: Use at 100 nM (50 nM final).
6. Anti-GST Ab (Pharmacia)
7. Anti-rabbit Ab/Europium conjugate (Wallac)
1. Add 25 μl of ADB containing B-Raf and Mek per assay (i.e. per well of a 96 well plate)
2. Add 25 μl of 0.2 mM ATP and 40 mM magnesium chloride in ADB.
3. Incubate for 60 minutes at RT in a shaking incubator.
4. Transfer this mixture to an anti-GST Ab coated 96 well plate (Nunc Immunosorb plates coated o/n with a-GST.
5. Incubate for 60 minutes at 30° C. in a shaking incubator
6. Wash 3× with TBST, add Anti-Phospho MEK1 (1:1000)
7. Incubate for 60 minutes at 30° C. in a shaking incubator
8. Wash 3× with TBST, add Anti-rabbit Ab/Europium conjugate (Wallac) (1:500)
9. Incubate for 60 minutes at 30° C. in a shaking incubator
10. Add 100 ul of Wallac Delfia Enhancement Solution and shake for 10 minutes.
11. Read plates in Wallac Victor model Plate Reader.
12. Collect data analyze in Excel for single point and IC50 determinations.
Typically Raf-1 assay is run at cpd concentrations from 10 μM to 30 nM in half log dilutions. (% inhibition is determined for each cpd concentration)

T1 sequence (P15056 whole entry): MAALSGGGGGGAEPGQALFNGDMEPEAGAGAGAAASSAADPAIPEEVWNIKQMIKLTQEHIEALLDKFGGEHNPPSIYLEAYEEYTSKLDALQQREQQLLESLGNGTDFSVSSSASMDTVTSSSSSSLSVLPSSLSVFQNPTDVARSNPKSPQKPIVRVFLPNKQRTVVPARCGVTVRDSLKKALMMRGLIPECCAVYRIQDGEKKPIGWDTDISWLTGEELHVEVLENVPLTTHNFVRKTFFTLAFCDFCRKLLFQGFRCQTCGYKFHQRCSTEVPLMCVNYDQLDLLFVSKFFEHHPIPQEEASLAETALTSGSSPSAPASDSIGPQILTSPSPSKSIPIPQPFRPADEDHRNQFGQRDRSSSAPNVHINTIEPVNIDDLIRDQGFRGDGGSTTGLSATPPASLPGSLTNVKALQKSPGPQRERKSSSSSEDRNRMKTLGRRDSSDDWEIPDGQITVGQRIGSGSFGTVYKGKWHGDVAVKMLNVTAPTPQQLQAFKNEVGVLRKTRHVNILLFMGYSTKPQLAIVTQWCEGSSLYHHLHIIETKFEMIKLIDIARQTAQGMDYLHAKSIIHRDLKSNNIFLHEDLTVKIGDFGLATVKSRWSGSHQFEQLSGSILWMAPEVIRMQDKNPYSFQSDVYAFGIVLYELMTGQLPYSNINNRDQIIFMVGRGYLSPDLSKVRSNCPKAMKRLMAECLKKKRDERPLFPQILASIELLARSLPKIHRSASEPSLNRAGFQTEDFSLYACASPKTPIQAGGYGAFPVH

IC50 [µM]	inhibition at 10 µM [%]	inhibition at 10 µM (single point assay, 10 uM) [%]	SMILES
> 10	19	–	CCOC(=O)c1cnn2c(-c3cccc(NC(=O)c4cc(C(F)(F)F)cc(Cl)c4F)c3)ccnc12 [Example 28, ethyl 7-(3-{[3-chloro-2-fluoro-5-(trifluoromethyl)benzoyl]amino}phenyl)pyrazolo[1,5-a]pyrimidine-3-carboxylate]
> 10	0	–	CCOC(=O)c1cnn2c(-c3cccc(NC(=O)c4cc(F)c(Cl)cc4F)c3)ccnc12 [Example 29, ethyl 7-{3-[(4-chloro-2,5-difluorobenzoyl)amino]phenyl}pyrazolo[1,5-a]pyrimidine-3-carboxylate]
1.3	75	–	CCOC(=O)c1cnn2c(-c3cccc(NC(=O)c4ccc(OC)c(C(F)(F)F)c4)c3)ccnc12 [Example 30, ethyl 7-(3-{[4-methoxy-3-(trifluoromethyl)benzoyl]amino}phenyl)pyrazolo[1,5-a]pyrimidine-3-carboxylate]
> 10	48	–	CNC(=O)c1cnn2c(-c3cccc(NC(=O)c4cccc(C(F)(F)F)c4)c3)ccnc12 [Example 31, N-methyl-7-(3-{[3-(trifluoromethyl)benzoyl]amino}phenyl)-pyrazolo[1,5-a]pyrimidine-3-carboxamide]
> 10	29	–	O=C(Nc1cccc(-c2ccnc3c(C(=O)O)cnn23)c1)c1cccc(C(F)(F)F)c1 [Example 32, 7-(3-{[3-(trifluoromethyl)benzoyl]amino}phenyl)pyrazolo[1,5-a]pyrimidine-3-carboxylic acid]
0.68	80	–	CCOC(=O)c1cnn2c(-c3cccc(NC(=O)Nc4cccc(C(F)(F)F)c4)c3)ccnc12 [Example 33, ethyl 7-{3-[({[3-(trifluoromethyl)phenyl]amino}carbonyl)amino]phenyl}pyrazolo[1,5-a]pyrimidine-3-carboxylate]
> 10	37	–	CCOC(=O)c1cnn2c(-c3cccc(NC(=O)Nc4ccc(Cl)cc4)c3)ccnc12 [Example 34, ethyl 7-[3-({[(4-chlorophenyl)amino]carbonyl}amino)phenyl]pyrazolo[1,5-a]pyrimidine-3-carboxylate]
3.1	71	–	CCOC(=O)c1cnn2c(-c3cccc(NC(=O)Nc4ccc(C(F)(F)F)cc4)c3)ccnc12 [Example 35, ethyl 7-{3-[({[4-(trifluoromethyl)phenyl]amino}carbonyl)amino]phenyl}pyrazolo[1,5-a]pyrimidine-3-carboxylate]
> 10	33	–	CCOC(=O)c1cnn2c(-c3cccc(NC(=O)Nc4ccc(Cl)cc4C)c3)ccnc12 [Example 36, ethyl 7-[3-({[(4-chloro-2-methylphenyl)amino]carbonyl}amino)phenyl]pyrazolo[1,5-a]pyrimidine-3-carboxylate]
6.82	76	–	CCOC(=O)c1cnn2c(-c3cccc(NC(=O)Nc4cc(C(F)(F)F)ccc4Cl)c3)ccnc12 [Example 37, ethyl 7-{3-[({[2-chloro-5-(trifluoromethyl)phenyl]amino}carbonyl)amino]phenyl}pyrazolo[1,5-a]pyrimidine-3-carboxylate]
> 10	20	–	CCOC(=O)c1cnn2c(-c3cccc(NC(=O)Nc4ccc(C#N)cc4)c3)ccnc12 [Example 38, ethyl 7-[3-({[(4-cyanophenyl)amino]carbonyl}amino)phenyl]pyrazolo[1,5-a]pyrimidine-3-carboxylate]
> 10	–	14	CCOC(=O)c1cnn2c(-c3cccc(NC(=O)Nc4ccccc4C(F)(F)F)c3)ccnc12 [Example 39, ethyl 7-{3-[({[2-(trifluoromethyl)phenyl]amino}carbonyl)amino]phenyl}pyrazolo[1,5-a]pyrimidine-3-carboxylate]
0.34	81	–	CCOC(=O)c1cnn2c(-c3cccc(NC(=O)Nc4ccc(Cl)c(Cl)c4)c3)ccnc12 [Example 40, ethyl 7-[3-({[(3,4-dichlorophenyl)amino]carbonyl}amino)phenyl]pyrazolo[1,5-a]pyrimidine-3-carboxylate]
> 10	37	–	CCOC(=O)c1cnn2c(-c3cccc(NC(=O)Nc4ccc(Br)cc4)c3)ccnc12 [Example 41, ethyl 7-[3-({[(4-bromophenyl)amino]carbonyl}amino)phenyl]pyrazolo[1,5-a]pyrimidine-3-carboxylate]
3.53	70	–	CCOC(=O)c1cnn2c(-c3cccc(NC(=O)Nc4ccc(C)c(C)c4)c3)ccnc12 [Example 42, ethyl 7-[3-({[(3,4-dimethylphenyl)amino]carbonyl}amino)phenyl]pyrazolo[1,5-a]pyrimidine-3-carboxylate]
> 10	9	–	CCOC(=O)c1cnn2c(-c3cccc(NC(=O)Nc4ccc(Cl)cc4C(F)(F)F)c3)ccnc12 [Example 43, ethyl 7-{3-[({[4-chloro-2-(trifluoromethyl)phenyl]amino}carbonyl)amino]phenyl}pyrazolo[1,5-a]pyrimidine-3-carboxylate]
0.27	90	–	CCOC(=O)c1cnn2c(-c3cccc(NC(=O)Nc4ccc(F)c(C(F)(F)F)c4)c3)ccnc12 [Example 44, ethyl 7-{3-[({[4-fluoro-3-(trifluoromethyl)phenyl]amino}carbonyl)amino]phenyl}pyrazolo[1,5-a]pyrimidine-3-carboxylate]
–	56	–	COCCNC(=O)c1cnn2c(-c3cccc(NC(=O)c4cccc(C(F)(F)F)c4)c3)ccnc12 [Example 45, N-(2-methoxyethyl)-7-(3-{[3-(trifluoromethyl)benzoyl]amino}phenyl)pyrazolo[1,5-a]pyrimidine-3-carboxamide]
–	54	–	CCCNC(=O)c1cnn2c(-c3cccc(NC(=O)c4cccc(C(F)(F)F)c4)c3)ccnc12 [Example 46, N-propyl-7-(3-{[3-(trifluoromethyl)benzoyl]amino}phenyl)pyrazolo[1,5-a]pyrimidine-3-carboxamide]
> 10	35	–	O=C(Nc1cccc(-c2ccnc3c(C(=O)Nc4cccnc4)cnn23)c1)c1cccc(C(F)(F)F)c1 [Example 47, N-pyridin-3-yl-7-(3-{[3-(trifluoromethyl)benzoyl]amino}phenyl)pyrazolo[1,5-a]pyrimidine-3-carboxamide]
–	43	–	O=C(Nc1cccc(-c2ccnc3c(C(=O)NCCN4CCCC4)cnn23)c1)c1cccc(C(F)(F)F)c1 [Example 48, N-(2-pyrrolidin-1-ylethyl)-7-(3-{[3-(trifluoromethyl)benzoyl]amino}phenyl)pyrazolo[1,5-a]pyrimidine-3-carboxamide]
5.94	62	–	CN(C)CCNC(=O)c1cnn2c(-c3cccc(NC(=O)c4cccc(C(F)(F)F)c4)c3)ccnc12 [Example 49, N-[2-(dimethylamino)ethyl]-7-(3-{[3-(trifluoromethyl)benzoyl]amino}phenyl)pyrazolo[1,5-a]pyrimidine-3-carboxamide]
8	42	–	CN1CCN(CCCNC(=O)c2cnn3c(-c4cccc(NC(=O)c5cccc(C(F)(F)F)c5)c4)ccnc23)CC1 [Example 50, N-[3-(4-methylpiperazin-1-yl)propyl]-7-(3-{[3-(trifluoromethyl)benzoyl]amino}phenyl)pyrazolo[1,5-a]pyrimidine-3-carboxamide]
–	50	–	CCNC(=O)c1cnn2c(-c3cccc(NC(=O)c4cccc(C(F)(F)F)c4)c3)ccnc12 [Example 51, N-ethyl-7-(3-{[3-(trifluoromethyl)benzoyl]amino}phenyl)pyrazolo[1,5-a]pyrimidine-3-carboxamide]
8	60	–	O=C(Nc1cccc(-c2ccnc3c(C(=O)NCCN4CCOCC4)cnn23)c1)c1cccc(C(F)(F)F)c1 [Example 52, N-(2-morpholin-4-ylethyl)-7-(3-{[3-(trifluoromethyl)benzoyl]amino}phenyl)pyrazolo[1,5-a]pyrimidine-3-carboxamide]
5	55	–	O=C(Nc1cccc(-c2ccnc3c(C(=O)NCCCN4CCOCC4)cnn23)c1)c1cccc(C(F)(F)F)c1 [Example 53, N-(3-morpholin-4-ylpropyl)-7-(3-{[3-(trifluoromethyl)benzoyl]amino}phenyl)pyrazolo[1,5-a]pyrimidine-3-carboxamide]

Reference: patent US20070219186A1, “Pyrazolo[1,5-A]pyrimidine derivatives and methods of use thereof” (priority 2006, published 2007)
